Reference: PubChem BioAssay AID651987 (The Scripps Research Institute Molecular Screening Center, 2013)
Activity calls are given as the source filed them.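 Rule for the calls: active = reversible inhibitor in any panel, blocking the enzyme before filtration but under 50% inhibition after two or more filtrations; inactive = irreversible inhibitor in every panel.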

Legend:
[1] = molecular target: Acyl-protein thioesterase 1 (Homo sapiens) (UniProt O75608); experiment: LYPLA1 and LYPLA2 inhibitor binding mode – cell lysate, gel-based ABPP, fluorescence, gel filtration, HEK293T proteome, mechanism study, late-stage follow-up (AID 651987); conditions: HEK293T soluble proteome
[2] = molecular target: Acyl-protein thioesterase 2 (Homo sapiens) (UniProt O95372); experiment: as above; conditions: HEK293T soluble proteome
[3] = LYPLA1, after 1 gel filtration, stronger effect = higher value
[4] = LYPLA1, after 2 gel filtrations, stronger effect = higher value
[5] = LYPLA1, stronger effect = higher value, concentration not given here
[6] = LYPLA2, after 1 gel filtration, stronger effect = higher value
[7] = LYPLA2, after 2 gel filtrations, stronger effect = higher value
[8] = LYPLA2, stronger effect = higher value, concentration not given here

Chain of Acyl-protein thioesterase 2 (Homo sapiens) (O95372 whole entry, looked up): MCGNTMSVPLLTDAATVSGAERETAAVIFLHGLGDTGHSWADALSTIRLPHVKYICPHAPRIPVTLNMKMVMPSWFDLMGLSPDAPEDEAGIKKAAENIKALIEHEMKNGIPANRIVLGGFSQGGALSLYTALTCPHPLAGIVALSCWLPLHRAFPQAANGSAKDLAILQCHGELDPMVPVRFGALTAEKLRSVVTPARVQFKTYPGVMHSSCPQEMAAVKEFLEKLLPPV
Chain of Acyl-protein thioesterase 1 (Homo sapiens) (O75608 whole entry, looked up): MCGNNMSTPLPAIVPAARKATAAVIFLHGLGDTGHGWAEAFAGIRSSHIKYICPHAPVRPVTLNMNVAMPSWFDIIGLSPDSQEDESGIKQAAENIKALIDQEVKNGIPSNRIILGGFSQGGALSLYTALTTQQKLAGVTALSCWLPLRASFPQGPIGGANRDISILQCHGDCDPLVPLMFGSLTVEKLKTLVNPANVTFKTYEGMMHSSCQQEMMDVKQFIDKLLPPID

Row | SMILES | inhibition [1, 3] [%] | inhibition [1, 4] [%] | inhibition [1, 5] | inhibition [2, 6] [%] | inhibition [2, 7] [%] | inhibition [2, 8] | inhibition ([1]; LYPLA1, after 3 gel filtrations, stronger effect = higher value) [%] | inhibition ([2]; LYPLA2, after 3 gel filtrations, stronger effect = higher value) [%]
1 | COc1ccc(N2CCN(C(=O)c3cc4c(s3)-c3ccccc3S(=O)(=O)C4)CC2)cc1 | 0 | 0 | 0% (inactive) | 100 | 0 | 100% | – | –
2 | O=C(N1CCCCC1)n1ccnn1 | 100 | – | 100% (inactive) | 100 | – | 100% (inactive) | 100 | 100
3 | O=C(CN1CCN(C(=O)c2ccco2)CC1)Nc1cc(C(F)(F)F)ccc1Cl | 75 | 0 | 100% | 0 | 0 | 0% (inactive) | – | –
